Laboratory results reported in ChEMBL document CHEMBL1201862, “PubChem BioAssay data set” (2004).
Activity calls are given as the source filed them.

Assays:
[1] = target: Prothrombin (Bos taurus, UniProt P00735); assay: thrombin inhibition, dose response, biochemical, fluorescence polarization, uHTS hits (AID 602369); assay type: functional
[2] = target: 72 kDa type IV collagenase (Homo sapiens, UniProt P08253); assay: Dose Response validation of uHTS RPN11 inhibitor hits using a MMP-2 Fluorescence assay.; assay type: functional
[3] = target: 26S proteasome non-ATPase regulatory subunit 14 (Homo sapiens, UniProt O00487); assay: inhibition of proteasome subunit RPN11 – biochemical, fluorescence polarization, uHTS hits, confirmation (AID 602368); assay type: functional
[4] = target: T1, High affinity choline transporter 1 (Homo sapiens, UniProt Q9GZV3); assay: CHT activators, dose response, cell-based, 10-point CRC, membrane potential dye (AID 602376); assay type: functional
T1 sequence (Q9GZV3 whole entry): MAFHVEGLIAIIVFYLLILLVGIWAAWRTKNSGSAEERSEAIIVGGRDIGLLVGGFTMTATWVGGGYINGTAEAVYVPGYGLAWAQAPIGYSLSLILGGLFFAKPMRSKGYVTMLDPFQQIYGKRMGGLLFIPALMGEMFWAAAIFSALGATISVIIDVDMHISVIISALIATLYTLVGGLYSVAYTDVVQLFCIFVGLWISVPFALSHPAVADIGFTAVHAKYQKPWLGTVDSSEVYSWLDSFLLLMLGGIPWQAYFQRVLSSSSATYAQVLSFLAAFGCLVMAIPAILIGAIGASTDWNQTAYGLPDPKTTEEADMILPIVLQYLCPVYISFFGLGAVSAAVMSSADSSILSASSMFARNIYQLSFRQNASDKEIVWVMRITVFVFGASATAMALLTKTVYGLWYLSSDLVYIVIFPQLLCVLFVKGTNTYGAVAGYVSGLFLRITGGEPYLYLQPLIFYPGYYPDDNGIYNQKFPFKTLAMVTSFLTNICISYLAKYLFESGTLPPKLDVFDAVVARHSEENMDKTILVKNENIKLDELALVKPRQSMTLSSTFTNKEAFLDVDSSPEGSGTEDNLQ

[5] = target: T2, DNA repair protein RAD52 homolog (Homo sapiens, UniProt P43351); assay type: functional, biochemical
T2 sequence (P43351 whole entry): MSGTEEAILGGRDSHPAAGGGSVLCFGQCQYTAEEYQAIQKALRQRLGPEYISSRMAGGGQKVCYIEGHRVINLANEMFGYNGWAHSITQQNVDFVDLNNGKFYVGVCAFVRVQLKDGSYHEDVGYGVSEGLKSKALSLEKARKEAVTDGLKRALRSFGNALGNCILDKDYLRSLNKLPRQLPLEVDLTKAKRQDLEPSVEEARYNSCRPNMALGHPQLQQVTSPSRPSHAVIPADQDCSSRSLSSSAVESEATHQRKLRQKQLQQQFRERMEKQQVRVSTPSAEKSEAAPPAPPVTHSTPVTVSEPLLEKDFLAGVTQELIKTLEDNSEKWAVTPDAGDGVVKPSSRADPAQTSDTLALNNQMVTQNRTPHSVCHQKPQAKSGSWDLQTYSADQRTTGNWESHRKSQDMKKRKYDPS

[6] = THP-1 cell cytotoxicity, cytotoxicity control, set 4 (AID 504911); assay type: functional; conditions: Mycobacterium tuberculosis
[7] = target: T3, Rac GTPase-activating protein 1 (Homo sapiens, UniProt Q9H0H5); assay: MgcRacGAP GTPase-activating activity inhibitors, confirmation, biochemical, ADP Hunter fluorescence, primary and confirmatory (AID 624330); assay type: functional
T3 sequence (Q9H0H5 whole entry): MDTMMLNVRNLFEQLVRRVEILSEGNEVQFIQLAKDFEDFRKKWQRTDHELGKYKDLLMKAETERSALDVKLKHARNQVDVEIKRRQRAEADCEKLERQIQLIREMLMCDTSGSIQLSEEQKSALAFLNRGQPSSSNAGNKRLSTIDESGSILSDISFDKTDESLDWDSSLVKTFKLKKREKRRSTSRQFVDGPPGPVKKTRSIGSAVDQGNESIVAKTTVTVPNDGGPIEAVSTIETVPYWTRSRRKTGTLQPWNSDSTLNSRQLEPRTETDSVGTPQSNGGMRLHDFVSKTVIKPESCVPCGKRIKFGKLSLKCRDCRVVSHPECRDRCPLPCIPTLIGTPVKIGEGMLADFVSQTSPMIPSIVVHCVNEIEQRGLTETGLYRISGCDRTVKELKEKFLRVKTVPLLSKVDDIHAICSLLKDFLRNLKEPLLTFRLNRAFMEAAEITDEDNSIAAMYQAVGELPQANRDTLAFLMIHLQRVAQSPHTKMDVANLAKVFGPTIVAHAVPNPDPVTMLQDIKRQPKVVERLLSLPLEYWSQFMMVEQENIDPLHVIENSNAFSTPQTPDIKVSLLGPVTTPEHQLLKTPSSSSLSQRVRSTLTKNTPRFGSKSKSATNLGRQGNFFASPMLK

[8] = A Cell Based Secondary Assay to Explore Cytotoxicity in THP-1 Cells of Compounds that Modulate Mycobacterium tuberculosis in Media Containing Glycerol versus Media without Glycerol (2).; assay type: functional
[9] = target: DNA (cytosine-5)-methyltransferase 1 (Homo sapiens, UniProt P26358); assay: DNMT1 methyltransferase inhibitors, confirmation, biochemical, fluorescent molecular beacon (AID 602386); assay type: functional
[10] = THP-1 cell cytotoxicity, dose response, cytotoxicity control, set 3 (AID 504852); assay type: functional; conditions: Mycobacterium tuberculosis
[11] = target: Cell division cycle 7-related protein kinase (Homo sapiens, UniProt O00311); assay type: functional;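 note: value obtained from a kinome-wide kinase panel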
[12] = target: ALK tyrosine kinase receptor (Homo sapiens, UniProt Q9UM73); assay type: functional;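 note: ALK tested as one member of a kinase panel screen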
[13] = target: Serine/threonine-protein kinase pim-1 (Homo sapiens, UniProt P11309); assay type: functional
[14] = target: Dual specificity protein kinase CLK4 (Homo sapiens, UniProt Q9HAZ1); assay type: functional
[15] = target: Glycogen synthase kinase-3 beta (Homo sapiens, UniProt P49841); assay type: functional;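 note: value comes from a broad kinome profiling panel, with GSK3B as the panel member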
[16] = target: Mitogen-activated protein kinase kinase kinase kinase 4 (Homo sapiens, UniProt O95819); assay type: functional
[17] = target: Interleukin-1 receptor-associated kinase 4 (Homo sapiens, UniProt Q9NWZ3); assay type: functional
[18] = target: Homeodomain-interacting protein kinase 2 (Homo sapiens, UniProt Q9H2X6); assay type: functional;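 note: measured within a kinome-wide kinase profiling panel, HIPK2 being one panel member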
[19] = target: cAMP-dependent protein kinase catalytic subunit alpha (Homo sapiens, UniProt P17612); assay type: functional
[20] = target: Misshapen-like kinase 1 (Homo sapiens, UniProt Q8N4C8); assay type: functional;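 note: kinome panel screen with MINK as the panel member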
[21] = target: Dual specificity protein kinase CLK2 (Homo sapiens, UniProt P49760); assay type: functional
[22] = target: Cyclin-dependent kinase 1 (Homo sapiens, UniProt P06493); assay type: functional;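 note: Kinome-wide panel profiling, with the target listed as panel member CDC2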
[23] = target: Cyclin-dependent kinase 5 (Homo sapiens, UniProt Q00535); assay type: functional;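 note: CDK5 measured as one member of a kinase profiling panel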
[24] = target: MAP/microtubule affinity-regulating kinase 3 (Homo sapiens, UniProt P27448); assay type: functional;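 note: MARK3 affinity measured as one member of a kinome panel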
[25] = target: STE20-like serine/threonine-protein kinase (Homo sapiens, UniProt Q9H2G2); assay type: functional
[26] = target: Tyrosine-protein kinase receptor UFO (Homo sapiens, UniProt P30530); assay type: functional

Sequence of Dual specificity protein kinase CLK4 (Q9HAZ1 whole entry): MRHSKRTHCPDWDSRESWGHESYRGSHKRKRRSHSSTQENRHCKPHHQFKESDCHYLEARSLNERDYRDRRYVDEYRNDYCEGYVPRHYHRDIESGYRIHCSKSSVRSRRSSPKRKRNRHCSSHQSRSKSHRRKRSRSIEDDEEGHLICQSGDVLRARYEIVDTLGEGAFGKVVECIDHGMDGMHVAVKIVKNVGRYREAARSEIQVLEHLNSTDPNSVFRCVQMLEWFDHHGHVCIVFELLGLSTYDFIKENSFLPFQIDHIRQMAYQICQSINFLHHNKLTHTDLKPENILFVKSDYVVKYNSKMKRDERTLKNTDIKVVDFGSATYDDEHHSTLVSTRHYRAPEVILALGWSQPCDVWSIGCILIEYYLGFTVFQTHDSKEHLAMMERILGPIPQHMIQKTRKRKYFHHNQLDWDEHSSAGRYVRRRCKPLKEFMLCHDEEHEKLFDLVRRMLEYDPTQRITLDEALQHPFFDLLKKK
Sequence of Cell division cycle 7-related protein kinase (O00311 whole entry): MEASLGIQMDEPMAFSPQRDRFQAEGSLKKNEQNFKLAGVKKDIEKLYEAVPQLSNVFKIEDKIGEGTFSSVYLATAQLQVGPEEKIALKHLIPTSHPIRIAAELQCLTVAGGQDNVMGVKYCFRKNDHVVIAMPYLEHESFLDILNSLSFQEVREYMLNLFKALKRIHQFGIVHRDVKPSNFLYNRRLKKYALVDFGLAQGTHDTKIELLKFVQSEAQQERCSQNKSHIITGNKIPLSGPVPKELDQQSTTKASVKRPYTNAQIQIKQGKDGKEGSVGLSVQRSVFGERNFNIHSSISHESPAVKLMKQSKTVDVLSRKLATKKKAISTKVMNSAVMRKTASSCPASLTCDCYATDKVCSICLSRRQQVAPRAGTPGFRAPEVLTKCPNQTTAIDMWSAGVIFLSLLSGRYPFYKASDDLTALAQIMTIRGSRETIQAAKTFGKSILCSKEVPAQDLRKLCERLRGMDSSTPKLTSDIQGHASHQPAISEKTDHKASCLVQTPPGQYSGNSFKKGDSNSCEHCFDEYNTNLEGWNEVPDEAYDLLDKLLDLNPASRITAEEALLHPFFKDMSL
Sequence of Mitogen-activated protein kinase kinase kinase kinase 4 (O95819 whole entry): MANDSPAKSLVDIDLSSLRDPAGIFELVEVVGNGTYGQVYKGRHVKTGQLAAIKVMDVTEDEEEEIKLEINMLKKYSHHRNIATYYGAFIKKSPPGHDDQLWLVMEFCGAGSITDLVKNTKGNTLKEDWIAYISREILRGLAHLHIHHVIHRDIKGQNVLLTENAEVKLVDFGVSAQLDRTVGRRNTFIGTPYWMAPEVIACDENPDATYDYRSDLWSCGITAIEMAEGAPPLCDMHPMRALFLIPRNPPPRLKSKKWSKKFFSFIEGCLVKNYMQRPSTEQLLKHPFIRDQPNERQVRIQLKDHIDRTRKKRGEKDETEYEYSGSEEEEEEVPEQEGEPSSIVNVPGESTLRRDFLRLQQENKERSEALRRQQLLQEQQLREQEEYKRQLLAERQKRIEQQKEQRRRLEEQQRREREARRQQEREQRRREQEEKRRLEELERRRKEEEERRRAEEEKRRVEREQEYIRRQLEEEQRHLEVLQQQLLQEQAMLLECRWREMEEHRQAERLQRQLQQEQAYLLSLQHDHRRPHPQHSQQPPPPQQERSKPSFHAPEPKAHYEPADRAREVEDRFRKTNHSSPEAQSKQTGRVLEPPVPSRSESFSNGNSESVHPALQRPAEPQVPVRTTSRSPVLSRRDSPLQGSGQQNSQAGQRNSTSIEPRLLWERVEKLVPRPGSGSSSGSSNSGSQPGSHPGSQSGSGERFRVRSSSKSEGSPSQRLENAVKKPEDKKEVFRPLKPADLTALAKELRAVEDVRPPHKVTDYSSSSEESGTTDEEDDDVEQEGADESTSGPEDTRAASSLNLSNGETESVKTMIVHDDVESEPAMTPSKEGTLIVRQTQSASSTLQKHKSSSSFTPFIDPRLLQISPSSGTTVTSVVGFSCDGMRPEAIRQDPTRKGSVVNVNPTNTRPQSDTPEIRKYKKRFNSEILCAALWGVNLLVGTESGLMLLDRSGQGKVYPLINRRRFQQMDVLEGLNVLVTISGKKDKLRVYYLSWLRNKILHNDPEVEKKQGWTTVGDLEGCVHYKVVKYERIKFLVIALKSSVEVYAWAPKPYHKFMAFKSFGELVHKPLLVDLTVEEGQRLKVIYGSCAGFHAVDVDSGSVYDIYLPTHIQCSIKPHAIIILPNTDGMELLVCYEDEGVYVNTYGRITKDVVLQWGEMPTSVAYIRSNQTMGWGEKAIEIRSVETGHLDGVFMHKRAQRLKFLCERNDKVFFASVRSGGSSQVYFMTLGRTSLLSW
Sequence of Glycogen synthase kinase-3 beta (P49841 whole entry): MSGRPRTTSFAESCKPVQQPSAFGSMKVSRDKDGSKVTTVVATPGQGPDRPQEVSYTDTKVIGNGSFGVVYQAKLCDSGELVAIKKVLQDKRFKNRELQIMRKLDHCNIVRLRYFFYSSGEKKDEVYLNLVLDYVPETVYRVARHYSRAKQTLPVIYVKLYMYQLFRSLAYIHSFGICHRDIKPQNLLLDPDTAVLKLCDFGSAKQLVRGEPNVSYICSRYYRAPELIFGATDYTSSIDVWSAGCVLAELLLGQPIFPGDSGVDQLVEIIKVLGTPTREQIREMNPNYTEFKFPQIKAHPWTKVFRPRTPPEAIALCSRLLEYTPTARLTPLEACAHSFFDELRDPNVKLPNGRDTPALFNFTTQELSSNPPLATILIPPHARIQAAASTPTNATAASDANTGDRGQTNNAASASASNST
Sequence of DNA (cytosine-5)-methyltransferase 1 (P26358 whole entry): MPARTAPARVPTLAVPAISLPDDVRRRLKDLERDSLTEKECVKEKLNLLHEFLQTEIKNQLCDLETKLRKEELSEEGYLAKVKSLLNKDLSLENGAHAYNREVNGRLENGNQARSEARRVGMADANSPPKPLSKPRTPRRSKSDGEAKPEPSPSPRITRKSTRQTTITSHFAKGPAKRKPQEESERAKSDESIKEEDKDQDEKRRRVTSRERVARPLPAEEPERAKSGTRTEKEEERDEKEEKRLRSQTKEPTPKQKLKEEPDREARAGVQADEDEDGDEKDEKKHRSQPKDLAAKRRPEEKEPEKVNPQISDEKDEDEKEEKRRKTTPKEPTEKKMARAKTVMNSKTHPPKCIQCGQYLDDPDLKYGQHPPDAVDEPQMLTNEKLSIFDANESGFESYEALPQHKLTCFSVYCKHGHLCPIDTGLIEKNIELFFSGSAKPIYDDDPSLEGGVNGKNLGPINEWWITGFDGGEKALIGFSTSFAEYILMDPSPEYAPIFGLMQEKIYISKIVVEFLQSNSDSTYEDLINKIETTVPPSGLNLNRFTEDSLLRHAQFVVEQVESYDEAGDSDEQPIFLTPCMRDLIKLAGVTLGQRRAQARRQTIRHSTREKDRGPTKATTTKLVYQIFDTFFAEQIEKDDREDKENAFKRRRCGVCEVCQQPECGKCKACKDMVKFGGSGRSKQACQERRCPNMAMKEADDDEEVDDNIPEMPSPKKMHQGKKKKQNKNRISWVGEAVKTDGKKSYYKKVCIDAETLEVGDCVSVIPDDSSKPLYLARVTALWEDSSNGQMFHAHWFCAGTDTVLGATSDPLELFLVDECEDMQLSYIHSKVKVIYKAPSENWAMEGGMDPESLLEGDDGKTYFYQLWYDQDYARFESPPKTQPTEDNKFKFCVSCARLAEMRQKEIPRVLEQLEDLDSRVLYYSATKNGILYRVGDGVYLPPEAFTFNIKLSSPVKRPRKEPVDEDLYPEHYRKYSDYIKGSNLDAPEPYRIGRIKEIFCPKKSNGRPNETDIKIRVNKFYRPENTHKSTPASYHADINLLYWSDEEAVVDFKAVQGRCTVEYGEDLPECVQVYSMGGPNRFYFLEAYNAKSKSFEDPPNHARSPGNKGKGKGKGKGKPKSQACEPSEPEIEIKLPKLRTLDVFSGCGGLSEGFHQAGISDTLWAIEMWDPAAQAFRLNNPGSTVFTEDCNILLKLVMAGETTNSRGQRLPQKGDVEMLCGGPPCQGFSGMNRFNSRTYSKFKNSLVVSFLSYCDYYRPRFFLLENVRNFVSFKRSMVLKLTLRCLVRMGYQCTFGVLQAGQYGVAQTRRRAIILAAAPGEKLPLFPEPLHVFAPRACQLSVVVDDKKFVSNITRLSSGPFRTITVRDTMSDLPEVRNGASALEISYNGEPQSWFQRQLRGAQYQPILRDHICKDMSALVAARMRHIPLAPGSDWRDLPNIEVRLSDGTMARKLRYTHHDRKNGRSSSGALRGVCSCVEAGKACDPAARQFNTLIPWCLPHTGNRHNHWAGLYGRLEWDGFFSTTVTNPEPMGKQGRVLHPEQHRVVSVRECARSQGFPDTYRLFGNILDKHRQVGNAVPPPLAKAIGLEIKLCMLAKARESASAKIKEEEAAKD
Sequence of Serine/threonine-protein kinase pim-1 (P11309 whole entry): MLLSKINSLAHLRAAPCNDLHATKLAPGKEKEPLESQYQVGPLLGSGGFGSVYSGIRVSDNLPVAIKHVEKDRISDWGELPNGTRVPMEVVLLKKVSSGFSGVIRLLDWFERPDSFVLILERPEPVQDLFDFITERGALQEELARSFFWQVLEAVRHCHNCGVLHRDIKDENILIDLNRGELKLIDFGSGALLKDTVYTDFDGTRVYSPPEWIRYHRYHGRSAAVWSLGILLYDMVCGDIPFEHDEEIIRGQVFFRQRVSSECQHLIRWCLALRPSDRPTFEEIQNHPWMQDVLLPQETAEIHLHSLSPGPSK
Sequence of Cyclin-dependent kinase 1 (P06493 whole entry): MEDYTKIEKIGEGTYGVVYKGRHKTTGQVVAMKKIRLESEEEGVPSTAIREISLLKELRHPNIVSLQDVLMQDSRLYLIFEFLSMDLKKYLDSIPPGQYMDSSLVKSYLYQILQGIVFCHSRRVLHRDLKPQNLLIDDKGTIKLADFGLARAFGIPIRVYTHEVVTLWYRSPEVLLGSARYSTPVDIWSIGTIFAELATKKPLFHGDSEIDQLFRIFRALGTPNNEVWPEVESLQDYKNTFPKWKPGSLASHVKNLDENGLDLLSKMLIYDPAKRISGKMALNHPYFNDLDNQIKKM

Question: Which IC50 [1] does the source give for `COc1ccc(CCNc2ccc(C(CC(N)=O)NC(=O)Cc3cccc4ccccc34)cc2[N+](=O)[O-])cc1` (stereo not given) here?
Answer: 40.1 µM (active)

Question: And the IC50 [2]?
Answer: > 100 µM (inactive)

Question: And the IC50 [3]?
Answer: 25.8 µM (active)

Question: Which EC50 [4] does the source give for `CC(NCc1cc(Br)ccc1OCC(N)=O)C12CC3CC(CC(C3)C1)C2` (stereo not given) here?
Answer: 13.8 µM (active)

Question: What does the source list for `CC[N+](C)(CC)CCCCOc1ccc2c(c1)C(=O)c1cc(OCCCC[N+](C)(CC)CC)ccc1-2`?
Answer: AC50 [5]: 0.574 µM (active); CC50 [6]: 10.5 µM (active); IC50 [7]: 180 µM (active); CC50 [8]: 38.8 µM (active); IC50 [9]: 1.24 µM (active); CC50 [10]: 17.1 µM (active)

Question: Which results are given for `Oc1cccc(-c2c[nH]c3ncccc23)c1`?
Answer: Ki [11]: 0.316 µM (active); Ki [12]: > 3.16 µM (inactive)

Question: With `O=C1Nc2ccccc2Nc2cc(-c3ccncc3)ccc21` as the molecule, how does the Ki [13] read?
Answer: > 10 µM (inactive)

Question: And the Ki [11]?
Answer: 0.00794 µM (active)

Question: And the Ki [14]?
Answer: 0.0398 µM (active)

Question: What about the Ki [15] of the same molecule?
Answer: 0.398 µM (active)

Question: And the Ki [16]?
Answer: 1.26 µM (active)

Question: What about the Ki [17] of the same molecule?
Answer: 2.51 µM (active)

Question: And the Ki [18]?
Answer: > 3.16 µM (inactive)

Question: What about the Ki [19] of the same molecule?
Answer: 1.26 µM (active)

Question: With `CC(C)Oc1ccc(-c2noc(-c3ccc(CN4CC(C(=O)O)C4)cc3)n2)cc1Cl` as the molecule, how does the Ki [20] read?
Answer: 6.31 µM (active)

Question: And the Ki [16]?
Answer: 5.01 µM (active)

Question: With `Cc1n[nH]c2c1C(c1ccccc1Br)C(C#N)=C(N)O2` (stereo not given) as the molecule, how does the Ki [21] read?
Answer: 3.16 µM (active)

Question: What about the Ki [22] of the same molecule?
Answer: 5.01 µM (active)

Question: What about the Ki [23] of the same molecule?
Answer: 3.16 µM (active)

Question: And the Ki [14]?
Answer: 5.01 µM (active)

Question: And the Ki [15]?
Answer: 3.98 µM (active)

Question: And the Ki [24]?
Answer: 2 µM (active)

Question: And the Ki [25]?
Answer: 1.58 µM (active)

Question: What about the Ki [26] of the same molecule?
Answer: 2 µM (active)
